Positions count from the first letter of the chain named. Where two headings read alike, the source gives them in different places.
Experiments:
IDH2 R140Q_Q316E cis = molecular target: T1, IDH2 R140Q_Q316E cis (Homo sapiens, UniProt P48735, Q316E/R140Q); experiment: Inhibition of 2-HG production in IDH2 mutant U-87 MG cells; format: cell-based
T1 construct: expressed in transfected cells; host or cells: U-87 MG
T1 sequence (P48735 40-452 R140Q/Q316E): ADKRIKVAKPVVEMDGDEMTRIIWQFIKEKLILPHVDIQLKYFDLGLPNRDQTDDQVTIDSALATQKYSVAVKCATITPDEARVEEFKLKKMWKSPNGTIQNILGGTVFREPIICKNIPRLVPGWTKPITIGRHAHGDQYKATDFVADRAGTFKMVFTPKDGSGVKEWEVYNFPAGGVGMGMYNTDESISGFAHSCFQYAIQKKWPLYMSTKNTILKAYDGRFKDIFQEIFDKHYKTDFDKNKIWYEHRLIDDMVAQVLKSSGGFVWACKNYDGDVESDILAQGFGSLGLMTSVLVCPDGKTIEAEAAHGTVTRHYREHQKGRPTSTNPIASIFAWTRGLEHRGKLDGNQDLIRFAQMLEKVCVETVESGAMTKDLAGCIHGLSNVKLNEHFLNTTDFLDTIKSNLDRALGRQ

IDH2 R172K_Q316E cis = molecular target: T2, IDH2 R172K_Q316E cis (Homo sapiens, UniProt P48735, Q316E/R172K); experiment: as above; format: cell-based; settings: 16 hours incubation, 50K cells/well, 100 μl media/well, read-out: Relative IC50 (nM) Mean, inhibition of 2-HG production
T2 construct: expressed in transfected cells; host or cells: U-87 MG
T2 sequence (P48735 40-452 R172K/Q316E): T1 sequence (P48735 40-452 R140Q/Q316E) with Q101R, R133K

SMILES: C=CC(=O)N1CCN([C@@H](CC2CC2)c2ccc([C@H](C)Nc3ncc4c(n3)N(CC)C(=O)OC4)cc2)CC1 [Compound A, 7-[[(1S)-1-[4-[(1S)-2-cyclopropyl-1-(4-prop-2-enoylpiperazin-1-yl)ethyl]phenyl]ethyl]amino]-1-ethyl-4H-pyrimido[4,5-d][1,3]oxazin-2-one]
- IC50 (IDH2 R140Q_Q316E cis; 16 hours incubation, 50K cells/well, 100 μl media/well, read-out: Relative IC50 (nM) Mean, inhibition of 2-HG production): 16 nM
- IC50 (IDH2 R140Q_Q316E cis; 72 hours incubation, 12.5K cells/well, 150 μl media/well, read-out: IC50, inhibition of 2-HG production): 22 nM
- IC50 (IDH2 R172K_Q316E cis): 76 nM
